Laboratory results published in US12540118B2, “Dendrene amide compound, bactericide and use thereof” (Jiangsu Flag Chemical Industry Co., Ltd., priority 2020, dated 2026).

How the values were obtained:
succinate dehydrogenase = molecular target: T1, succinate dehydrogenase (Sus scrofa, UniProt A5GZW8+D0VWV4+Q007T0); test: Enzyme activity assay, succinate dehydrogenase (DCIP reduction); format: biochemical, porcine; conditions: read-out: Inhibitors (10 μM, SQR)
T1 construct: isolated from porcine hearts; from tissue; host or cells: porcine heart
Description: The inhibitory activities of control agents and target compounds on succinate dehydrogenase are determined.
The enzyme used in this test example is succinate dehydrogenase, which is isolated from porcine hearts.
The test method comprises the following steps: The total volume of the system is 1.8 ml, and the system contained 100 mM Na2HPO4—NaH2PO4 buffer (pH=7.4), 0.3 mM EDTA, 20 mM sodium succinate, 53 μM DCIP (2,6-dichloroindophenol sodium), and 2 nM succinate dehydrogenase. Thermostatic waterbath at 23° C. and magnetic stirring at 600 rpm. The decrease in the light absorption of the substrate DCIP is monitored at a wavelength of 600 nm and experimental points in a linear range are collected. Control substrate consumption not more than 5% of the experimental points. The molar extinction coefficient of DCIP is 21 mM^−1 cm^−1. And calculating the reduction yield of the DCIP in the reaction time, fitting a linear slope, and deducting the baseline slope to obtain the initial reaction speed.

Erysiphe graminis = Erysiphe graminis potting method; format: in vivo; conditions: Blumeria graminis, read-out: Erysiphe graminis control rating; for pest or weed control at 100 µg/mL: 100 mg/L
Description: The fungicidal activity of the control agents and target compounds are determined. The test and investigation method refers to SOP-SC-1116 Erysiphe graminis potting method in disinfectant rolls written by KANGZHUO and GUBAOGEN in “Standard operation specification for testing biological activity of pesticides”.

Sphaerotheca fuliginea = Sphaerotheca fuliginea potting method; format: in vivo; conditions: Podosphaera fuliginea; 100 mg/L; read-out: Sphaerotheca fuliginea control rating
Description: The fungicidal activity of the control agents and target compounds are determined. The test and investigation method refers to SOP-SC-1101 sphaerotheca fuliginea potting method in disinfectant rolls written by KANGZHUO and GUBAOGEN in “Standard operation specification for testing biological activity of pesticides”.

T1 sequence (Q0QF01 43-664 partner): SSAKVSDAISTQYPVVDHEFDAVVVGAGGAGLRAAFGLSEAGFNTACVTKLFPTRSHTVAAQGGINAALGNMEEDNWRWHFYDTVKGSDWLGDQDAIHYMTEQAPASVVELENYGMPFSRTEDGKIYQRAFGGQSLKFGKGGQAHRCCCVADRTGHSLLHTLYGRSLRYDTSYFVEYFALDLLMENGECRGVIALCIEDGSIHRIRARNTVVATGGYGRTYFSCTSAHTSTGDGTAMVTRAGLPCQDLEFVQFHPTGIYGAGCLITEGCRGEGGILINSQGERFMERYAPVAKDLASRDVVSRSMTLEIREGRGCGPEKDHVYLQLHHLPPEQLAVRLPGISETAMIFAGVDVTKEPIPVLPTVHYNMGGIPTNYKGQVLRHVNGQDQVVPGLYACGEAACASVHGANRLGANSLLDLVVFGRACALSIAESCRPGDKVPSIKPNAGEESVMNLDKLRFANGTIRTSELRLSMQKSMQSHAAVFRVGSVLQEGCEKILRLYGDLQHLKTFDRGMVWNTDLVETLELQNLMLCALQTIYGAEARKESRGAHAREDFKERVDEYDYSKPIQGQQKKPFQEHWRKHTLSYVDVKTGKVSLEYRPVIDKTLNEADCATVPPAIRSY
T1 sequence (Q007T0 29-280): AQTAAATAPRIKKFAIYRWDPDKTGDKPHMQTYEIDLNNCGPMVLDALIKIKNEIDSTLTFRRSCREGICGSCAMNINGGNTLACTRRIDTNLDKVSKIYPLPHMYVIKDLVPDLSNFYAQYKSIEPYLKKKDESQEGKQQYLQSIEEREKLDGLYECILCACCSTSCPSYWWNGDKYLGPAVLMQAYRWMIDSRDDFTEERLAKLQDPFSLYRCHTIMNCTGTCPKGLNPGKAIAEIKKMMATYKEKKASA
T1 sequence (D0VWV4 30-169): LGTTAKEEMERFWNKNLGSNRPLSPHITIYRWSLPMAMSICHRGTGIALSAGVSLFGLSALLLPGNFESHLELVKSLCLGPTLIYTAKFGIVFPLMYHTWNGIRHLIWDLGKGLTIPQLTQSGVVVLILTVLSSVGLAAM
T1 sequence (A5GZW8 57-159 limits assumed): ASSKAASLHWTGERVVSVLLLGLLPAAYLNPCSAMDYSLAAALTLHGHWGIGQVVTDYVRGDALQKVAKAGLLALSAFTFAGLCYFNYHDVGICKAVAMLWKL

Row | SMILES | inhibition at 10 µM (succinate dehydrogenase) [%] | pest or weed control at 100 µg/mL (Erysiphe graminis) [%] | pest or weed control at 100 µg/mL (Sphaerotheca fuliginea) [%] | pest or weed control at 6.25 µg/mL (Erysiphe graminis; 6.25 mg/L) [%] | pest or weed control at 25 µg/mL (Erysiphe graminis; 25 mg/L) [%]
1 | Cn1cc(C(=O)N(CC(=C(Cl)Cl)c2ccc(Cl)cc2)C2CC2)c(C(F)F)n1 [Compound 114] | > 90 | 80 to 100 | 80 to 100 |  | 
2 | C=C(c1cccc(Cl)c1)C(C)N(C(=O)c1c(C(F)F)nn(C)c1F)C1CC1 (centres unmarked) [Compound 57] | > 90 | 80 to 100 | 80 to 100 |  | 
3 | Cn1nc(C(F)F)c(C(=O)N(CC(=C(Cl)Cl)c2ccccc2)C2CC2)c1F [Compound 111] | > 90 | 80 to 100 | 80 to 100 |  | 
4 | C=C(c1ccccc1C)C(C)N(C(=O)c1c(C(F)F)nn(C)c1F)C1CC1 (centres unmarked) [Compound 87] | > 90 | 80 to 100 | 80 to 100 |  | 
5 | C=C(c1cc(F)cc(F)c1)C(C)N(C(=O)c1c(C(F)F)nn(C)c1F)C1CC1 (centres unmarked) [Compound 63] | > 90 | 80 to 100 | 80 to 100 |  | 
6 | Cc1ccc(C(=C(Cl)Cl)C(C)N(C(=O)c2c(C(F)F)nn(C)c2F)C2CC2)cc1 (centres unmarked) [Compound 203] | > 90 | 80 to 100 | 80 to 100 |  | 
7 | Cc1ccc(C(=C(Cl)Cl)C(C)N(C(=O)c2c(C(F)F)nn(C)c2F)C2CC2)c(C)c1 (centres unmarked) [Compound 193] | > 90 | 80 to 100 | 80 to 100 |  | 
8 | C=C(CN(C(=O)c1c(C(F)F)nn(C)c1F)C1CC1)c1ccccc1F [Compound 20] | > 90 | 80 to 100 | 80 to 100 |  | 
9 | C=C(c1ccc(Cl)cc1Cl)C(C)N(C(=O)c1c(C(F)F)nn(C)c1F)C1CC1 (centres unmarked) [Compound 67] | > 90 | 80 to 100 | 80 to 100 |  | 
10 | C=C(c1cc(Br)ccc1Br)C(C)N(C(=O)c1c(C(F)F)nn(C)c1F)C1CC1 (centres unmarked) [Compound 83] | > 90 | 80 to 100 | 80 to 100 |  | 
11 | C=C(CN(C(=O)c1c(C(F)F)nn(C)c1F)C1CC1)c1cccc(C)c1 [Compound 32] | > 90 | 80 to 100 | 70 to 80 |  | 
12 | C=C(CN(C(=O)c1c(C(F)F)nn(C)c1F)C1CC1)c1cccc(F)c1 [Compound 21] | > 90 | 80 to 100 | 70 to 80 |  | 
13 | C=C(c1ccccc1S(C)(=O)=O)C(C)N(C(=O)c1c(C(F)F)nn(C)c1F)C1CC1 (centres unmarked) [Compound 105] | > 90 | 80 to 100 | 80 to 100 |  | 
14 | CCS(=O)(=O)c1cccc(C(=C(Cl)Cl)C(C)N(C(=O)c2c(C(F)F)nn(C)c2F)C2CC2)c1 (centres unmarked) [Compound 217] | > 90 | 80 to 100 | 80 to 100 |  | 
15 | C=C(CN(C(=O)c1c(C(F)F)nn(C)c1F)C1CC1)c1ccc(C)cc1C [Compound 33] | > 90 | 80 to 100 | 80 to 100 |  | 
16 | Cn1nc(C(F)F)c(C(=O)N(CC(=C(Cl)Cl)c2ccc(F)c(F)c2)C2CC2)c1F [Compound 130] | > 90 | 80 to 100 | 80 to 100 |  | 
17 | CC(C(=C(Cl)Cl)c1cc(S(C)(=O)=O)ccc1Cl)N(C(=O)c1c(C(F)F)nn(C)c1F)C1CC1 (centres unmarked) [Compound 215] | > 90 | 80 to 100 | 80 to 100 |  | 
18 | C=C(CN(C(=O)c1c(C(F)F)nn(C)c1F)C1CC1)c1c(C)cccc1C [Compound 35] | > 90 | 80 to 100 | 80 to 100 | 70 to 80 | 80 to 100
19 | Cn1nc(C(F)F)c(C(=O)N(CC(=C(Cl)Cl)c2ccc(Cl)cc2)C2CC2)c1Cl [Compound 113] | > 90 | 80 to 100 | 80 to 100 |  | 
20 | Cn1nc(C(F)F)c(C(=O)N(CC(=C(Cl)Cl)c2ccc(Br)cc2Br)C2CC2)c1F [Compound 134] | > 90 | 80 to 100 | 80 to 100 |  | 
21 | C=C(CN(C(=O)c1c(C(F)F)nn(C)c1F)C1CC1)c1cc(S(C)(=O)=O)ccc1Cl [Compound 51] | > 90 | 80 to 100 | 80 to 100 |  | 
